Laboratory results reported in patent US8426174B2, “Method for the production of 2-butanol” (Butamax(TM) Advanced Biofuels LLC, priority 2007, dated 2013).

Experiments:
[1] = tested on: Lactobacillus plantarum PN0512; assay: Growth of L. plantarum PN0512 in the presence of butanols at different temperatures; assay type: cell-based; set-up: key to Growth at 37° C. / Growth at 30° C. / Growth at 25° C.: +: growth observed as an increase in OD600.; −: no growth observed, i.e. no change in OD600
Procedure: Tolerance levels of bacterial strain Lactobacillus plantarum PN0512 (ATCC # PTA-7727) were determined at 25° C., 30° C. and 37° C. as follows. The strain was cultured in S30L medium (i.e., 10 mM ammonium sulfate, 5 mM potassium phosphate buffer, pH 7.0, 50 mM MOPS, pH 7.0, 2 mM MgCl2, 0.7 mM CaCl2, 50 μM MnCl2, 1 μM FeCl3, 1 μM ZnCl2, 1.72 μM CuCl2, 2.53 μM CoCl2, 2.42 μM Na2MoO4, 2 μM thiamine hydrochloride, 10 mM glucose, and 0.2% yeast extract). An overnight culture in the absence of any test compound was started in 15 mL of the S30L medium in a 150 mL flask, with incubation at 37° C. in a shaking water bath. The next morning, the overnight culture was diluted into three 500 mL flasks containing 150 mL of fresh medium to an initial OD600 of about 0.08. Each flask was incubated in a shaking water bath, one each at 25° C., 30° C. and 37° C. Each large culture was allowed to acclimate at the test temperature for at least 0.5 h. […] Growth was followed by measuring OD600 for six hours after addition of the compounds.

[2] = tested on: Klebsiella pneumoniae glycerol dehydratase; assay: Glycerol dehydratase butanediol dehydratase activity, crude cell free extract; assay type: biochemical; settings: 10 mM meso-2,3-butanediol, 12 μM coenzyme B12, pH 8.2, 37° C.
Description: Glycerol dehydratase (E.C. 4.2.1.30) and diol dehydratase (E.C. 4.2.1.28), while structurally related, are often distinguished in the art based on various differences that include substrate specificity. […] The recombinant E. coli strain KLP23/pSYCO12, comprising Klebsiella pneumoniae genes encoding the multiple subunits of glycerol dehydratase (alpha: SEQ ID NO:145 (coding region) and 146 (protein); beta: SEQ ID NO: 147 (coding region) and 148 (protein); and gamma: SEQ ID NO: 149 (coding region) and 150 (protein)) and Klebsiella pneumoniae genes encoding the multiple subunits of glycerol dehydratase reactivase (large subunit, SEQ ID NO: 151 (coding region) and 152 (protein); and small subunit, SEQ ID NO: 153 (coding region) and 154 (protein)), is described in Emptage et al. U.S. Pat. No. 6,514,733 and in WO 2003089621, which are herein incorporated by reference. A crude, cell free extract of KLP23/pSYCO12 was prepared by methods known to one skilled in the art. […] The formation of 2-butanone was monitored by HPLC (Shodex SH-1011 column and SH-G guard column with refractive index detection; 0.01 M H2SO4 as the mobile phase at a flow rate of 0.5 mL/min and a column temperature of 50° C.; 2-butanone retention time=40.2 min). The rate of 2-butanone formation by the glycerol dehydratase preparation was determined to be 0.4 nmol/min/mg of crude protein.

CCC(C)O (stereo not drawn) [2-butanol]
4.3%: concentration in which growth was observed ([1]; 37° C.)
+: Growth at 37° C. ([1]; 1.8 % w/v 2-butanol) | Growth at 37° C. ([1]; 2.1 % w/v 2-butanol) | Growth at 25° C. ([1]; 2.9 % w/v 2-butanol) | Growth at 30° C. ([1]; 2.9 % w/v 2-butanol) | Growth at 37° C. ([1]; 2.9 % w/v 2-butanol) | Growth at 37° C. ([1]; 3.1 % w/v 2-butanol) | Growth at 37° C. ([1]; 3.6 % w/v 2-butanol) | Growth at 25° C. ([1]; 3.8 % w/v 2-butanol) | Growth at 30° C. ([1]; 3.8 % w/v 2-butanol) | Growth at 37° C. ([1]; 3.8 % w/v 2-butanol) | Growth at 30° C. ([1]; 4.0 % w/v 2-butanol) | Growth at 25° C. ([1]; 4.3 % w/v 2-butanol) | Growth at 30° C. ([1]; 4.3 % w/v 2-butanol) | Growth at 37° C. ([1]; 4.3 % w/v 2-butanol) | Growth at 25° C. ([1]; 4.7 % w/v 2-butanol) | Growth at 30° C. ([1]; 4.7 % w/v 2-butanol) | Growth at 25° C. ([1]; 4.9 % w/v 2-butanol) | Growth at 25° C. ([1]; 5.2 % w/v 2-butanol) | Growth at 30° C. ([1]; […] w/v 2-butanol)
4.5%: concentration in which growth was not observed ([1]; 37° C.)
−: Growth at 37° C. ([1]; 4.7 % w/v 2-butanol) | Growth at 30° C. ([1]; 4.9 % w/v 2-butanol) | Growth at 37° C. ([1]; 5.2 % w/v 2-butanol) | Growth at 25° C. ([1]; 5.6 % w/v 2-butanol) | Growth at 37° C. ([1]; 5.6 % w/v 2-butanol) | Growth at 37° C. ([1]; 6.0 % w/v 2-butanol) | Growth at 37° C. ([1]; 6.4 % w/v 2-butanol) | Growth at 37° C. ([1]; 7.3 % w/v 2-butanol)
4.9%: concentration in which growth was not observed ([1]; 30° C.)
5.2%: concentration in which growth was observed ([1]; 25° C.)
4.7%: concentration in which growth was observed ([1]; 30° C.)

CC(O)C(C)O (stereo not drawn) [meso-2,3-butanediol]
0.4 nmol/min/mg of crude protein: rate of 2-butanone formation [2]
